From US20020061569A1, “Identification of essential genes in prokaryotes” (priority 2000, published 2002) come the findings set out here.

Series [1] concerns E. coli transformed with IPTG-inducible antisense clones. Briefly: Cell-based assay using antisense to genes encoding ribosomal proteins (Example 9). From the text: First, pLex5BA (Krause et al., J. Mol. Biol. 274: 365 (1997), the disclosure of which is incorporated herein by reference in its entirety) vectors containing antisense constructs to either rplW or to elaD were introduced into separate E. coli cell populations. Vector introduction is a technique well known to those of ordinary skill in the art. The vectors of this example contain IPTG inducible promoters that drive the transcription of the antisense RNA in the presence of the inducer. However, those skilled in the art will appreciate that other inducible promoters may also be used. Suitable vectors are also well known in the art. Antisense clones to genes encoding different ribosomal proteins or to genes encoding proteins that are not involved in protein synthesis were utilized to test the effect of antisense transcription on cell sensitivity to the antibiotics known to bind to ribosomal proteins and inhibit protein synthesis. Antisense nucleic acids comprising a nucleotide sequence complementarty to the elaD, atpB&atpE, visC and yohH genes are referred to as AS-elaD, AS-atpB/E, AS-visC, AS-yohH respectively. These genes are not known to be involved in protein synthesis. […]
The cell populations containing vectors producing AS-elaD or AS-rplW were exposed to a range of IPTG concentrations in liquid medium to obtain the growth inhibitory dose curve for each clone (FIG. 1). First, seed cultures were grown to a particular turbidity measured by the optical density (OD) of the growth solution. […] The cells were grown for up to 15 hours and the extent of growth was determined by measuring the optical density of the cultures at 600 nm. […]
An example of a tetracycline dose response curve is shown in FIGS. 2A and 2B for the rplW and elaD genes, respectively. Cells were grown to log phase and then diluted into medium alone or medium containing IPTG at concentrations which give 20% and 50% growth inhibition as determined by IPTG dose response curves. […] The 96 well plates were incubated at 37° C. and the OD600 was read by a plate reader every 5 minutes for up to 15 hours. […]

The test system of series [2] is Staphylococcus aureus RN4220. Briefly: Inhibition of proliferation after xylose induction of antisense expression (Example 1). It is filed as cell-based. The settings on record: 2% xylose. An excerpt: In the case of Staphylococcus aureus, a novel inducible promoter system, XylT5, comprising a modified T5 promoter fused to the xylO operater from the xyla promoter of Staphylococcus aureus was used. The promoter is described in U.S. Provisional Patent Application Ser. No. 60/259,434, the disclosure of which is incorporated herein by reference in its entirety. Transcription from this hybrid promoter is inducible by xylose.
In the case of Staphylococcus aureus, a shotgun library of Staphylococcus aureus genomic fragments was cloned into the vector pXyIT5-P15a, which harbors the Xy1T5 inducible promoter. […]
The purified library was then transformed into electrocompetent Staphylococcus aureus RN4220. […] Gridded plates were incubated 16 hours at 37° C., and then manually scored for arrayed colonies that were growth-compromised in the presence of xylose.
Arrayed colonies that were growth-sensitive on medium containing 2% xylose, yet were able to grow on similar medium lacking xylose, were subjected to further growth sensitivity analysis as follows: Colonies from the plate lacking xylose were manually picked and inoculated into individual wells of a 96 well culture dish containing LBG+CM15, and were incubated for 16 hours at 37° C. […] Clones that grew similarly at all dilutions on both media were scored as a negative and were no longer considered.

Turning to `CCn1cc(C(=O)O)c(=O)c2ccc(C)nc21` [Nalidixic acid], in series [1] (antibiotics which do not inhibit protein synthesis), the “sensitivity of the clone transcribing antisense to rplL and rplJ (AS-rplL/J)” value was “does not show increased sensitivity”. Take `CC[C@H]1OC(=O)[C@H](C)[C@@H](O[C@H]2C[C@@](C)(OC)[C@@H](O)[C@H](C)O2)[C@H](C)[C@@H](O[C@@H]2O[C@H](C)C[C@H](N(C)C)[C@H]2O)[C@](C)(O)C[C@@H](C)C(=O)[C@H](C)[C@@H](O)[C@]1(C)O` [Erythromycin]: in series [1] (AS-atpB/E, AS-visC, AS-elaD, AS-yohH), the “sensitivity of cells transcribing antisense to genes not involved in protein synthesis” value is recorded as “do not”. Moreover, the “sensitivity of cells transcribing antisense to protein synthesis genes” value in series [1] (AS-rplL, AS-rplW, clones to L7/L12, L10, L22, L18, rRNA, Elongation Factor G, with vs without IPTG) is “increased sensitivity”.

B1: S1M10000001A05: clone containing the nucleic acid which inhibits Staphylococcus aureus proliferation (nucleic acid, listed as Staphylococcus aureus)
DNA: GATCATATAGAATGACATCCGCTTCACGTATTAAACGCTCAGCCTTTTTCGTCAAATAATTCGGATTACCTGGACCCGCACCTATCAAGTAAACCTTGCCATATTCCTCTACAGACATATATATACGTTCCCGTCTGTAACTTCTACCTCATAAACATCTACACAACCTTCATCAGGTTCTTGAACAATACCTGTATTTAAATCAATTTTTT
With B1, the “growth sensitivity upon induction of antisense transcription” value in series [2] was “inhibits Staphylococcus aureus proliferation”.
